A word on the Ki: it is a dissociation constant, usually derived from enzyme kinetics or from competition with a known ligand.

Bounds are passed on as bounds.

The text below walks through data of patent publication US7659394B2 (Pfizer Inc, priority 2004, dated 2010).

In test [1] the target is T1, human norepinephrine transporter (Homo sapiens, UniProt P23975).
T1 construct: host or cells: HEK-293
The experiment in a line: hNET receptor binding ([125I]-RTI-55 radioligand binding). The following applies: membranes of HEK-293 cells transfected with human norepinephrine transporter, IC50 converted to Ki by Cheng-Prusoff, read-out: hNET (Ki). An outline of the steps:
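Membranes from HEK-293 cells transfected with human NET. Nonspecific binding defined with 10 μM desipramine, duplicates. IC50 by nonlinear regression, converted to Ki with Cheng-Prusoff.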

Test [2] deals with T2, human seritonin transporter (Homo sapiens, UniProt P31645).
T2 construct: host or cells: HEK-293
T2 sequence (P31645 whole entry): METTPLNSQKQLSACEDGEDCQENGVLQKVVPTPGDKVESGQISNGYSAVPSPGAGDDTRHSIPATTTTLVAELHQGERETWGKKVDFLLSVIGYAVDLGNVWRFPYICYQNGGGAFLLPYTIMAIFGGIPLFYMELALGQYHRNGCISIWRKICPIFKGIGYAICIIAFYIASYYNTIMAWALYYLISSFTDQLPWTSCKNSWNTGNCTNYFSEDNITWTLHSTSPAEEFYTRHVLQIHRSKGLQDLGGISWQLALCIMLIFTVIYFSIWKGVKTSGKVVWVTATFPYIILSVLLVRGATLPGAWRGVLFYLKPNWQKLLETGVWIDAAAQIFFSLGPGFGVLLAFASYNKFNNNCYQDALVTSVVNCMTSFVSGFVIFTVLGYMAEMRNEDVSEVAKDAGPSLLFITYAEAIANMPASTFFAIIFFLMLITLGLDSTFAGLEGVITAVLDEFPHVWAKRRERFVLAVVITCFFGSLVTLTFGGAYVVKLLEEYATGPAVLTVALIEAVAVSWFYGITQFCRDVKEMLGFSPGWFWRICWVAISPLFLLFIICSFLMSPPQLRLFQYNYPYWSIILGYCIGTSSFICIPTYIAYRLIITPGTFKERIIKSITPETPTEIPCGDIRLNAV
The experiment in a line: hSERT receptor binding ([125I]-RTI-55 radioligand binding). The conditions noted are these: membranes of HEK-293 cells transfected with human seritonin transporter, IC50 converted to Ki by Cheng-Prusoff, read-out: SERT (Ki).

T1 sequence (P23975 whole entry): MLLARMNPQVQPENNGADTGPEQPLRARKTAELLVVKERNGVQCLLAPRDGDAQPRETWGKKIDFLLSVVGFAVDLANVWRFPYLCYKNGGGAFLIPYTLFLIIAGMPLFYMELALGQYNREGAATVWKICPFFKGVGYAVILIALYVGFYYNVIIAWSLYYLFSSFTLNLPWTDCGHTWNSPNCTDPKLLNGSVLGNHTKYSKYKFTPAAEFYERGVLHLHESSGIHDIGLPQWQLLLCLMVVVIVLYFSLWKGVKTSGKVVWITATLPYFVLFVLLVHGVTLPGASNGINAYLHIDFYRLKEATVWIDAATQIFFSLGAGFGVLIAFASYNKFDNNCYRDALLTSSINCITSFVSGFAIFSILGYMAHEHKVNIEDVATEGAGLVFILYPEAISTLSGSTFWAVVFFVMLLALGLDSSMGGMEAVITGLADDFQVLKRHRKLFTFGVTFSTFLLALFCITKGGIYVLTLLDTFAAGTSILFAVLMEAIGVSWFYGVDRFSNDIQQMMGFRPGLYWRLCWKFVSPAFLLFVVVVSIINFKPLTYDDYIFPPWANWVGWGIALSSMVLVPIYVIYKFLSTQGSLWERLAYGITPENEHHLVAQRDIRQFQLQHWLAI

`FC(F)(F)Oc1ccccc1O[C@@H](c1ccccn1)[C@@H]1CNCCO1` [Example 129, (2S)-2-{(S)-pyridin-2-yl[2-(trifluoromethoxy)phenoxy]methyl}morpholine]: the Ki in test [1] was determined as 8 nM; in test [2], 4470 nM.

Turning to `Fc1cccc(F)c1OC(c1nccs1)[C@@H]1CNCCO1` (stereo partly drawn) [Example 175, (2S)-2-[(2,6-difluorophenoxy)(1,3-thiazol-2-yl)methyl]morpholine], the Ki in test [1] came out at 15 nM; in test [2], 7640 nM.

Turning to `Fc1ccc(-c2cc(F)ccc2OCC2CNCCO2)cc1` [Example 76, (R)- and (S)-2-(5,4′-Difluoro-biphenyl-2-yloxymethyl)-morpholine], the Ki in test [1] turned out to be 64 nM; in test [2] it was 349 nM.

`Cc1ncccc1O[C@@H](c1ccccc1)[C@@H]1CNCCO1` [Example 131, (2S)-2-[(S)-[(2-methylpyridin-3-yl)oxy](phenyl)methyl]morpholine]: the Ki in test [1] worked out at 388 nM; in test [2] it was 99 nM.

`Fc1ccc(Oc2ncccc2OC[C@@H]2CNCCO2)cc1F` [Example 79, (S)-2-[2-(3,4-Difluoro-phenoxy)-pyridin-3-yloxymethyl]-morpholine]: the Ki in test [1] worked out at 10 nM; in test [2], 9650 nM.

Regarding `c1ccc([C@H](Oc2ccccc2-c2ccncc2)[C@@H]2CNCCO2)cc1` [Example 10, (S)-2-[(S)-Phenyl-(2-pyridin-4-yl-phenoxy)-methyl]-morpholine], the results for the Ki in test [1] and in test [2] were 689 nM and at least 10000 nM, respectively.

Consider `c1ccc(Cc2ccccc2O[C@@H](c2ccccc2)[C@@H]2CNCCO2)cc1` [Example 9, (S)-2-[(S)-(2-Benzyl-phenoxy)-phenyl-methyl]-morpholine], for which the Ki in test [1] turned out to be 15 nM; in test [2], 967 nM.

On to `CCOc1cccc(F)c1OC(c1ccccc1)[C@@H]1CNCCO1` (stereo partly drawn) [Example 157, (2S)-2-[(2-ethoxy-6-fluorophenoxy)(phenyl)methyl]morpholine], for which the Ki turned out to be 4 nM in test [1] and 2570 nM in test [2].

As to `CCc1ccnc([C@H](Oc2c(F)cccc2OC)[C@@H]2CNCCO2)c1` [Example 141, (2S)-2-[(S)-(4-ethylpyridin-2-yl) (2-fluoro-6-methoxyphenoxy)methyl]morpholine], the Ki in test [1] stood at 40 nM; in test [2], 2740 nM.

With `CCOc1ccccc1O[C@H](c1cccnc1)[C@H]1CNCCO1` [Example 90, (2R)-2-[(R)-(2-Ethoxy-phenoxy)-pyridin-3-yl-methyl]-morpholine], the Ki in test [1] worked out at 211 nM; in test [2] it was 5050 nM.

Take `CCOCc1ccccc1O[C@@H](c1ccccc1)[C@@H]1CNCCO1` [Example 63, (S)-2-[(S)-(2-Ethoxymethyl-phenoxy)-phenyl-methyl]-morpholine]: the Ki in test [1] worked out at 28 nM; in test [2], 2540 nM.

With `CC(C)Cc1ccccc1O[C@@H](c1ccccc1)[C@@H]1CNCCO1` [Example 3, (S)-2-[(S)-(2-isobutyl-phenoxy)-phenyl-methyl]-morpholine], the Ki in test [1] is 33 nM; in test [2], 1580 nM.

In the case of `Cc1ccc(-c2ccccc2O[C@@H](c2ccccc2)[C@@H]2CNCCO2)cc1` [Example 82, (S)-2-[(S)-(4′-Methyl-biphenyl-2-yloxy)-phenyl-methyl]-morpholine], the values for the Ki in test [1] and in test [2] were 11 nM and 2610 nM, respectively.

For `Brc1ccccc1O[C@@H](c1ccccn1)[C@@H]1CNCCO1` [Example 155, (2S)-2-[(S)-(2-bromophenoxy)(pyridin-2-yl)methyl]morpholine], the figures for the Ki in test [1] and in test [2] were 5 nM and 768 nM, respectively.

In the case of `CCSc1ccccc1O[C@@H](c1ccccc1)[C@@H]1CNCCO1` [Example 2, (S)-2-[(S)-(2-Ethylsulfanyl-phenoxy)-phenyl-methyl]-morpholine], the results for the Ki in test [1] and in test [2] were 6.3 nM and 564 nM, respectively.

As to `c1ccc([C@H](Oc2cccc3ccccc23)[C@@H]2CNCCO2)cc1` [Example 12, (S)-2-[(S)-(Naphthalen-1-yloxy)-phenyl-methyl]-morpholine], the results for the Ki in test [1] and in test [2] were 6.7 nM and 6.4 nM, respectively.

Turning to `FCc1ccccc1OC(c1ccccc1)[C@@H]1CNCCO1` (stereo partly drawn) [Example 156, (2S)-2-[[2-(fluoromethyl)phenoxy](phenyl)methyl]morpholine], the values for the Ki in test [1] and in test [2] were 14 nM and 801 nM, respectively.

Turning to `CC(C)Cc1cc(F)ccc1O[C@@H](c1ccccc1)[C@@H]1CNCCO1` [Example 59, (S)-2-[(S)-(4-Fluoro-2-isobutyl-phenoxy)-phenyl-methyl]-morpholine], the Ki in test [1] was found to be 61 nM; in test [2], 206 nM.

In the case of `COc1cccc(F)c1O[C@@H](c1ccccn1)[C@@H]1CNCCO1` [Example 158, (2S)-2-[(S)-(2-fluoro-6-methoxyphenoxy)(pyridin-2-yl)methyl]morpholine], the Ki was 6 nM in test [1] and at least 10000 nM in test [2].

As for `FC(F)(F)c1ccccc1O[C@@H](c1ccccc1)[C@@H]1CNCCO1` [Example 8, (S)-2-[(S)-Phenyl-(2-trifluoromethyl-phenoxy)-methyl]-morpholine], the Ki in test [1] is 4.2 nM; in test [2], 4710 nM.

As to `[O-][n+]1ccccc1O[C@@H](c1ccccc1)[C@@H]1CNCCO1` [Example 29, (S)-2-[((S)-1-Oxy-pyridin-2-yloxy)-phenyl-methyl]-morpholine], the inhibition constant (Ki) is 154 nM in test [1] and at least 10000 nM in test [2].

With `CCOc1ccccc1OC(CC1CCCCC1)[C@@H]1CNCCO1` (stereo partly drawn) [Example 37, (S)-2-[(S)-2-Cyclohexyl-1-(2-ethoxy-phenoxy)-ethyl]-morpholine and (2S,3-R)-2-[2-Cyclohexyl-1-(2-ethoxy-phenoxy)-ethyl]-morpholine], the figures for the Ki in test [1] and in test [2] were 12 nM and 163 nM, respectively.

For `COc1cccc([C@H](Oc2c(F)cccc2F)[C@@H]2CNCCO2)n1` [Example 199, (2S)-2-[(S)-(2,6-difluorophenoxy)(6-methoxypyridin-2-yl)methyl]morpholine], the inhibition constant (Ki) in test [1] came out at 8 nM; in test [2], 2940 nM.

Turning to `c1ccc(C(Oc2ccccc2C2CC2)[C@H]2CNCCO2)cc1` (stereo partly drawn) [Example 114, (2R)-2-[(2-cyclopropylphenoxy)(phenyl)methyl]morpholine], the Ki in test [1] amounted to 35 nM; in test [2] it was 75 nM.

Turning to `COc1cccc([C@H](Oc2ccccc2OC(C)C)[C@@H]2CNCCO2)n1` [Example 140, (2S)-2-[(S)-(2-isopropoxyphenoxy)(6-methoxypyridin-2-yl)methyl]morpholine], the Ki was 71 nM in test [1] and 763 nM in test [2].

Take `CCOc1ccccc1O[C@H](c1ccccn1)[C@H]1CNCCO1` [Example 181, (2R)-2-[(R)-(2-ethoxyphenoxy)(pyridin-2-yl)methyl]morpholine]: the figures for the Ki in test [1] and in test [2] were 225 nM and 4900 nM, respectively.

With `Fc1cccc(OC(F)(F)F)c1O[C@@H](c1ccccc1)[C@@H]1CNCCO1` [Example 194, (2S)-2-[(S)-[2-fluoro-6-(trifluoromethoxy)phenoxy](phenyl)methyl]morpholine], the Ki in test [1] is 9 nM; in test [2], 2560 nM.

Regarding `CCCc1ccccc1O[C@@H](c1ccccn1)[C@@H]1CNCCO1` [Example 127, (2S)-2-[(S)-(2-propylphenoxy)(pyridin-2-yl)methyl]morpholine], the Ki amounted to 7 nM in test [1] and 6280 nM in test [2].
